The values below come from ChEMBL document CHEMBL5230107, “Anticancer boron-containing prodrugs responsive to oxidative stress from the tumor microenvironment” (Eur J Med Chem, 2020).

Series [1] in a line: Antiproliferative activity against human U-87 MG cells assessed as reduction in cell viability. In kind it is functional, cell-based, U-87MG ATCC.
The test system of series [2] is Panel NCI-60 (60 carcinoma cell lines). The series is described as follows: Cytotoxicity against human Panel NCI-60 (60 carcinoma cell lines). It counts as functional, cell-based.
Another series concerns BXPC-3. The series can be described thus: Antiproliferative activity against human BXPC-3 cells assessed as reduction in cell viability measured for 72 hrs by CCK-8 assay. The note with it: BXPC-3, 72 h. It counts as functional, cell-based. (In general: Tetrazolium assays rely on reduction of a dye to a coloured formazan, in cell work by metabolically active cells.)
The nature of series [3]: Antiproliferative activity against human Nasopharyngeal carcinoma cell line assessed as reduction in cell viability measured for 72 hrs by CCK-8 assay. In kind it is functional, cell-based.
For another series, the system named is PSN1. The series can be described thus: Antiproliferative activity against human PSN1 cells assessed as reduction in cell viability measured for 72 hrs by CCK-8 assay. In kind it is functional, cell-based. Conditions: PSN1, 72 h.
A further series concerns NCI-H1993. The series is described as follows: Cytotoxicity against human NCI-H1993 cells assessed as inhibition of cell growth. In kind it is functional, cell-based.
For the next series, the system named is MV4-11. The series can be described thus: Antiproliferative activity against human MV4-11 cells assessed as reduction in cell viability. It counts as functional.
The next series concerns U-937. The series is described as follows: Antiproliferative activity against human U-937 cells assessed as reduction in cell viability. It counts as functional.
Series [4] in a line: Cytotoxicity against human MRC5 cells assessed as reduction in cell viability by Almar Blue stained fluorescence-based assay. In kind it is toxicity.
In series [5] the test system is MCF7. The series can be described thus: Antitumor activity against human MCF7 cells xenografted in BALB/c nude mouse assessed as tumor growth inhibition at 10 mg/kg, iv. It counts as functional. The note with it: read-out: TGI. (In xenograft studies the graft and the host belong to different species.)
For series [6], the system named is HeLa. The series can be described thus: Antiproliferative activity against human HeLa cells assessed as reduction in cell viability at 100 uM. In kind it is functional.
In series [7] the test system is B16-F10. The series can be described thus: Antiproliferative activity against mouse B16-F10 cells assessed as reduction in cell viability at 100 uM. It counts as functional.
The subject of another series is MIA PaCa-2. The series is described as follows: Cytotoxicity against human MIA PaCa-2 cells assessed as inhibition of cell growth measured after 72 hrs by MTS assay. It counts as functional, cell-based. The note with it: MIA PaCa-2, 72 h.
Series [8] has as its system MCF7. The series is described as follows: Antitumor activity against human MCF7 cells xenografted in mouse assessed as tumor regression at 5 mg/kg, po. It counts as functional.
Series [9] concerns HeLa. The series can be described thus: Cytotoxicity against human HeLa cells assessed as inhibition of cell growth. It counts as functional, cell-based.
Series [10] relates to NIH3T3. The series is described as follows: Antiproliferative activity against mouse NIH3T3 cells assessed as reduction in cell viability. In kind it is functional, cell-based.
The test system of series [11] is DU-145. The series is described as follows: Antitumor activity against human DU-145 cells implanted in mouse assessed as reduction in tumor volume at 2 mg/kg, po. In kind it is functional. Also on record: scale not given: the % may be the effect or the level left.
The subject of series [12] is DU-145. The series can be described thus: Antiproliferative activity against human DU-145 cells assessed as reduction in cell viability. In kind it is functional, cell-based.
Series [13] has as its system HeLa. The series is described as follows: Cytotoxicity against human HeLa cells assessed as reduction in cell viability by Almar Blue stained fluorescence-based assay. In kind it is functional.
For a further series, the system named is A549. The series can be described thus: Cytotoxicity against human A549 cells assessed as reduction in cell viability by Almar Blue stained fluorescence-based assay. It counts as functional.
A further series concerns MDA-MB-231. The series is described as follows: Cytotoxicity against human MDA-MB-231 cells assessed as reduction in cell viability by Almar Blue stained fluorescence-based assay. In kind it is functional.
In series [14] the test system is B16-F10. The series is described as follows: Antitumor activity against mouse B16-F10 cells implanted in mouse assessed as increase in survival time at 0.25 mg/kg, po. It counts as functional.
The next series deals with HL-60. The series can be described thus: Cytotoxicity against human HL-60 cells assessed as inhibition of cell growth. In kind it is functional, cell-based.
The test system of series [15] is 4T1. The series is described as follows: Antitumor activity against mouse 4T1 cells implanted in mouse assessed as reduction in tumor volume at 37 mg/kg, iv. Also on record: scale not given: the % may be the effect or the level left. In kind it is functional.
For series [16], the system named is NIH3T3. The series can be described thus: Cytotoxicity against mouse NIH3T3 cells assessed as reduction in cell viability. It counts as functional, cell-based.
The test system of series [17] is 4T1. The series can be described thus: Cytotoxicity against mouse 4T1 cells assessed as reduction in cell viability. It counts as functional, cell-based.
The next series has as its system SR. The series can be described thus: Antiproliferative activity against human SR cells assessed as growth inhibition at 10 uM relative to control. In kind it is functional. On the set-up: scale not given: the % may be the effect or the level left.
For another series, the system named is NCI-H460. The series is described as follows: Antiproliferative activity against human NCI-H460 cells assessed as growth inhibition at 10 uM relative to control. In kind it is functional. Also on record: scale not given: the % may be the effect or the level left.

`CC[C@@]1(O)C(=O)OCc2c1cc1n(c2=O)Cc2cc3ccccc3nc2-1` [CAMPTOTHECIN]: the IC50 in series [1] came out at 250 nM.

In series [2], `COc1cc(CBr)c(B2OC(C)(C)C(C)(C)O2)c(CBr)c1` registered an IC50 of 10000 nM.

Regarding `Nc1ccn([C@@H]2O[C@H](CO)[C@@H](O)C2(F)F)c(=O)n1` [GEMCITABINE], the IC50 (with BXPC-3; in series [3]; in the series with PSN1) was 5 nM throughout.

Regarding `C[C@@H](Oc1cc(-c2cnn(C3CCNCC3)c2)cnc1NC(=O)OCc1ccc(B(O)O)cc1)c1c(Cl)ccc(F)c1Cl`, the IC50 in the series with NCI-H1993 was found to be 3000 nM.

As for `O=C(CCCCCCC(=O)Nc1ccccc1)NOCc1ccc(B(O)O)cc1`, the Activity with MV4-11 and in the series on U-937 was 20% each time.

As to `CC(=O)O[C@H]1C(=O)[C@@]2(C)[C@H]([C@H](OC(=O)c3ccccc3)[C@]3(O)C[C@H](OC(=O)[C@H](O)[C@@H](NC(=O)c4ccccc4)c4ccccc4)C(C)=C1C3(C)C)[C@]1(OC(C)=O)CO[C@@H]1C[C@@H]2O` [PACLITAXEL], the IC50 in series [4] was determined as 25000 nM. Further, the inhibition in vivo at 10 mg/kg in the series on MCF7 [5] was 60%.

In the case of `CC[C@@]1(O)C(=O)OCc2c1cc1n(c2=O)Cc2cc3cc(O)ccc3nc2-1` [HYDROXYCAMPTOTHECIN], the Activity in the series on HeLa [6] and in the series with B16-F10 [7] was 60% throughout.

Regarding `COc1cccc2c1C(=O)c1c(O)c3c(c(O)c1C2=O)C[C@@](O)(C(=O)CO)C[C@@H]3O[C@H]1C[C@H](N)[C@H](O)[C@H](C)O1` [DOXORUBICIN], the IC50 in the series on MIA PaCa-2 is 200 nM. In addition, in the series with MCF7 [8], the Activity was 50%.

Take `COc1cccc2c1C(=O)c1c(O)c3c(c(O)c1C2=O)C[C@@](O)(C(=O)CO)C[C@@H]3O[C@H]1C[C@H](NCC(=O)OCc2cc(C)cc(COC(=O)c3ccc(C(=C(c4ccccc4)c4ccccc4)c4ccccc4)cc3)c2OCc2ccc(B3OC(C)(C)C(C)(C)O3)cc2)[C@H](O)[C@H](C)O1`: in the series with HeLa [9], the IC50 came to 2000 nM.

Take `CC1(COC(=O)OCc2ccc(B3OCCCO3)cc2)COC(/C=C/c2ccccc2)OC1` (centres undefined): the 50% inhibitory concentration (IC50) in the series with NIH3T3 [10] is 182000 nM; with DU-145 [12], 48000 nM. The Activity in the series with DU-145 [11] was 75%.

Take `O=C(CCCCCCC(=O)Nc1ccccc1)NO` [VORINOSTAT]: the Activity in the series on MV4-11 and in the series on U-937 was 20% throughout.

On to `C[C@@H](Oc1cc(-c2cnn(C3CCNCC3)c2)cnc1N)c1c(Cl)ccc(F)c1Cl` [CRIZOTINIB], for which, in the series with NCI-H1993 (Homo sapiens, NCI-H1993, read-out: IC50), the IC50 turned out to be 3000 nM.

On to `CCN(CC)/[N+]([O-])=N/OCc1cc2ccc(B3OC(C)(C)C(C)(C)O3)cc2oc1=O`, for which the IC50 in the series on HeLa [13], in the series on A549 and in the series with MDA-MB-231 was 10000 nM throughout.

For `COc1cccc2c1C(=O)c1c(O)c3c(c(O)c1C2=O)C[C@@](O)(C(=O)CO)C[C@@H]3O[C@H]1C[C@H](NC(=O)OCc2ccc(B3OC(C)(C)C(C)(C)O3)cc2)[C@H](O)[C@H](C)O1`, the Activity in the series on MCF7 [8] amounted to 30%.

Consider `CC[C@@]1(O)C(=O)OCc2c1cc1n(c2=O)Cc2cc3cc(OC(=O)OCc4cc5ccc(B(O)O)cc5oc4=O)ccc3nc2-1`, for which the Activity in the series on HeLa [6] and in the series on B16-F10 [7] was 60% in each case. Besides, in the series with B16-F10 [14], the Time turned out to be 1 days.

For `CN(Cc1cnc2nc(N)nc(NC(=O)OCc3ccc(B(O)O)cc3)c2n1)c1ccc(C(=O)N[C@H](CCC(=O)O)C(=O)O)cc1`, the IC50 with HL-60 is 50 nM.

Regarding `CCN(CC)C(=S)SCc1ccc(B2OC(C)(C)C(C)(C)O2)cc1`, the Activity in the series with 4T1 [15] was determined as 80%. Moreover, the IC50 with NIH3T3 [16] worked out at 6000 nM; in the series with 4T1 [17] it was 1000 nM.

For the compound `CC1(C)OB(c2ccc(C[N+](C)(CCCl)CCCl)cc2)OC1(C)C.[Br-]`, the Activity with SR and in the series on NCI-H460 was 85% in each case.

As usually defined, the IC50 is the concentration that inhibits the measured activity by half.
